# Measured values taken from patent publication US8058243B2, “Method for treating a brain cancer with ifenprodil” (HSC Research and Development Limited Partnership, priority 2006, dated 2011).
# Structures can show the parent of a compound that is named as a salt. Where two headings read alike, the source gives them in different places.
# Test system: murine neural precursor cells (neurosphere cultures)
# Test: HTS of LOPAC library against secondary neurosphere cultures, MTT proliferation assay at 3 μM, day 7 (z score, P value)
# Assay type: cell-based, mouse
# [1] = primary LOPAC screen, 3 μM, MTT, neurosphere proliferation
# [2] = yes/no: significantly inhibited neurosphere proliferation in the primary screen
# [3] = LOPAC library screen at 3 μM, secondary neurosphere cultures, MTT
# [4] = LOPAC primary screen, neurosphere MTT proliferation, 3 μM, day 7
# [5] = yes = significantly inhibited neurosphere proliferation (P<0.01) in the primary screen
# [6] = yes/no: significantly inhibited neurosphere proliferation (P<0.01) in the primary screen
# [7] = yes/no: significantly inhibited neurosphere proliferation in primary screen
# [8] = LOPAC screen, neurosphere MTT proliferation, 3 μM, day 7
# [9] = yes/no: significantly inhibited neurosphere proliferation (P<0.01) in primary screen
# [10] = LOPAC library screen, 3 μM, MTT, neurosphere cultures
# [11] = LOPAC library screen, 3 μM, MTT, secondary neurosphere cultures, day 7
compound,measurement,setting,value
Cc1cc(C(C)(C)C)cc(C)c1CC1=NCCN1 [Xylometazoline hydrochloride],Z Score,,0.296
same,Z score,[1],0.296
same,Activity,[2],no
CNCCCC12CCC(c3ccccc31)c1ccccc12 [Maprotiline hydrochloride],Z Score,[3],−0.3615
same,Z score,[4],−0.361
same,Activity,[5],no
C=CCN1CC[C@]23c4c5ccc(O)c4O[C@H]2/C(=N/NC(=O)c2ccccc2)CC[C@@]3(O)[C@H]1C5 [Naloxone benzoylhydrazone],Z Score,,1.915
same,Z score,[4],1.915
same,Activity,[6],no
COc1cccc(NC(=O)/C=C/c2ccc(Cl)cc2)c1 [SB-366791],Z Score,,−1.419
same,Z score,[4],−1.419
same,Activity,[7],no
COc1ccccc1N1CCN(CCN(C(=O)c2ccc(F)cc2)c2ccccn2)CC1.Cl.Cl [p-MPPF dihydrochloride],Z Score,,−2.16
"Br.C=CCN1CCc2cc(O)c(O)cc2C(c2ccccc2)C1 (racemic) [(±)-SKF 38393, N-allyl-, hydrobromide]",Activity,,no
same,Z score,[1],−1.590
N[C@@H](CCCC(=O)O)C(=O)O [L-2-aminoadipic acid],Z Score,"168 h, 3 µM",−2.334
same,Z score,"168 h, 3 µM",−2.334
same,Activity,[6],yes
CN1CCN(CCCN2c3ccccc3Sc3ccc(C(F)(F)F)cc32)CC1 [Trifluoperazine dihydrochloride],Z Score,"168 h, 3 µM",−9.305
same,Z score,"168 h, 3 µM",−9.305
same,Activity,[6],yes
COc1ccccc1N1CCN(CCCNc2cc(=O)n(C)c(=O)n2C)CC1 [Urapidil hydrochloride],Z Score,"168 h, 3 µM",0.1572
same,Z score,"168 h, 3 µM",0.157
same,Activity,[2],no
O=[N+]([O-])c1cc2nc(O)c(O)nc2cc1[N+](=O)[O-] [DNQX],Z Score,,0.9307
same,Z score,[8],0.931
same,Activity,[9],no
Cl.Cl.Cn1cnc(CCN)c1 [1-Methylbistamine dihydrochloride],Z Score,,0.3068
C[C@H]1C[C@H]2[C@@H]3CCC4=CC(=O)C=C[C@]4(C)[C@@]3(F)[C@@H](O)C[C@]2(C)[C@@]1(O)C(=O)CO [Betamethasone],Z Score,[10],0.8811
same,Z score,[8],0.881
N=C(N)N/N=C/c1c(Cl)cccc1Cl [Guanabenz acetate],Z Score,[11],−1.906
same,Z score,[4],−1.906
same,Activity,[9],no
O=C(O)C1CN(CCCP(=O)(O)O)CCN1 (centres unmarked) [(B1)-CPP],Z Score,,0.3213
"(−)-Bicuculline methbromide, 1(S), 9(R)",Activity,,no
same,Z Score,,−1.842
same,Z score,[4],−1.842
C[N+]1(CCCCC[N+]2(C)CCCC2)CCCC1.O=C([O-])C(O)C(O)C(=O)O.O=C([O-])C(O)C(O)C(=O)O [Pentolinium di[L(+)-tartrate]],Z Score,[10],0.1662
same,Z score,[4],0.166
same,Activity,[7],no
C[C@H](CS)C(=O)N1CCC[C@H]1C(=O)O [Captopril],Z Score,[11],−1.285
same,Z score,[8],−1.285
same,Activity,[9],no
C[C@]12C[C@H](O)[C@H]3[C@@H](CCC4=CC(=O)CC[C@@]43C)[C@@H]1CC[C@@H]2C(=O)CO [Corticosterone],Activity,,no
same,Z Score,[11],−2.285
same,Z score,[1],−2.285
Albuterol hemisulfate,Z Score,[3],−0.949
same,Z score,[4],−0.949
same,Activity,[7],no
C=CC(N)CCC(=O)O (racemic) [(±)-gamma-Vinyl GABA],Z score,[1],−0.701
same,Activity,[2],no
CCn1cc(C(=O)O)c(=O)c2cc3c(cc21)OCO3 [Oxolinic acid],Z Score,[10],0.9179
same,Z score,[4],0.918
same,Activity,[7],no
Oc1ncnc2[nH]ncc12 [Allopurinol],Z Score,[10],0.1473
same,Z score,[1],0.147
same,Activity,[2],no
L-Hyoscyamine,Activity,,no
same,Z Score,,−0.661
same,Z score,,−0.661
trans-(±)-ACPD,Z score,[1],0.315
same,Activity,[2],no
Br.CCCN(CCC)C1CCc2cccc(O)c2C1 (racemic) [(±)-8-Hydroxy-DPAT hydrobromide],Z score,[4],0.656
same,Activity,[6],no
"C[C@]12CC[C@@H](O)C[C@@H]1CC[C@@H]1[C@@H]2CC[C@]2(C)[C@@H](O)CC[C@@H]12 [5alpha-Androstane-3alpha, 17beta-diol]",Z Score,,−0.3811
Oc1ccc(O)cc1 [Hydroquinone],Z Score,[10],0.428
same,Z score,[4],0.428
same,Activity,[9],no
CSc1ccc(C(=O)c2[nH]c(=O)[nH]c2C)cc1 [Enoximone],Z Score,[3],−0.6237
same,Z score,[8],−0.624
same,Activity,[9],no
CN(C)CCC=C1c2ccccc2C=Cc2ccccc21 [Cyclobenzaprine hydrochloride],Z Score,[10],0.07186
same,Z score,[8],0.072
same,Activity,[9],no
CCCOC(=O)c1c(-c2ccccc2)nc(CC)c(C(=O)SCC)c1CCC [MRS 1523],Z Score,,−0.001312
same,Z score,[4],−0.001
same,Activity,[5],no
CCCCNc1cc(C(=O)O)cc(S(N)(=O)=O)c1Oc1ccccc1 [Bumetanide],Z Score,[11],−2.182
same,Z score,[8],−2.182
same,Activity,[9],no
"CN(C)C(=N)NCCC[C@H](N)C(=O)O.Cl [N′,N′-Dimethylarginine hydrochloride]",Z score,[8],−1.373
same,Activity,[9],no
"C[C@]12CCC(=O)C(O)=C1CC[C@@H]1[C@@H]2CC[C@]2(C)C(=O)CC[C@@H]12 [4-Androsten-4-ol-3,17-dione]",Z Score,,0.1944
same,Z score,[1],0.194
same,Activity,[2],no
O=c1c2ccccc2nc2n1CCc1c-2[nH]c2ccccc12 [Rutaecarpine],Z Score,"168 h, 3 µM",0.6857
same,Z score,"168 h, 3 µM",0.686
CCCCCC(O)c1cccc(OCc2ccc3ccccc3n2)c1 (centres unmarked) [REV 5901],Z Score,"168 h, 3 µM",−1.184
same,Z score,"168 h, 3 µM",−1.184
same,Activity,[7],no
O=C1Cc2c([nH]c3ccc(Br)cc23)-c2ccccc2N1 [Kenpaullone],Z Score,"168 h, 3 µM",−1.555
same,Z score,"168 h, 3 µM",−1.555
same,Activity,[9],no
COC(=O)N1CCN(C(=O)Cc2ccc(Cl)c(Cl)c2)C(CN2CCCC2)C1.O=C(O)/C=C/C(=O)O (racemic) [GR-89696 fumarate],Z Score,,−0.7788
same,Z score,[4],−0.779
same,Activity,[6],no
C[N+]1(C)CCOC(O)(c2ccc(-c3ccc(C4(O)C[N+](C)(C)CCO4)cc3)cc2)C1.[Br-].[Br-] (centres unmarked) [Hemicholinium-3],Z Score,,0.7871
same,Z score,[4],0.787
same,Activity,[9],no
Br.CCCN(CCC)[C@@H]1CCc2cccc(O)c2C1 [R-(+)-8-Hydroxy-DPAT hydrobromide],Z Score,[3],−0.6916
same,Z score,[4],−0.692
same,Activity,[6],no
CN1CCN(C2Cc3ccccc3Sc3ccc(Cl)cc32)CC1.O=C(O)/C=C\C(=O)O (centres unmarked) [(B1)-Octoclothepin maleate],Z Score,,1.473
Cl.Cl.Clc1cccc(N2CCNCC2)c1,Z Score,,0.9516
Cc1ccc(C(=O)Nc2ccc(S(=O)(=O)[O-])c3cc(S(=O)(=O)[O-])cc(S(=O)(=O)[O-])c23)cc1NC(=O)c1cccc(NC(=O)Nc2cccc(C(=O)Nc3cc(C(=O)Nc4ccc(S(=O)(=O)[O-])c5cc(S(=O)(=O)[O-])cc(S(=O)(=O)[O-])c45)ccc3C)c2)c1.[Na+].[Na+].[Na+].[Na+].[Na+].[Na+] [Suramin hexasodium],Z Score,"LOPAC library screen at 3 μM, MTT, secondary neurosphere cultures, screened in singlets",2.284
same,Z score,[1],2.284
same,Activity,[2],no
